{"source": "patent US9340590B2", "about": "(priority 2011, dated 2016)", "key": {"hNav1.5": {"molecular_target": "hNav1.5 (Homo sapiens, UniProt Q14524)", "sequence (Q14524 whole entry, looked up)": "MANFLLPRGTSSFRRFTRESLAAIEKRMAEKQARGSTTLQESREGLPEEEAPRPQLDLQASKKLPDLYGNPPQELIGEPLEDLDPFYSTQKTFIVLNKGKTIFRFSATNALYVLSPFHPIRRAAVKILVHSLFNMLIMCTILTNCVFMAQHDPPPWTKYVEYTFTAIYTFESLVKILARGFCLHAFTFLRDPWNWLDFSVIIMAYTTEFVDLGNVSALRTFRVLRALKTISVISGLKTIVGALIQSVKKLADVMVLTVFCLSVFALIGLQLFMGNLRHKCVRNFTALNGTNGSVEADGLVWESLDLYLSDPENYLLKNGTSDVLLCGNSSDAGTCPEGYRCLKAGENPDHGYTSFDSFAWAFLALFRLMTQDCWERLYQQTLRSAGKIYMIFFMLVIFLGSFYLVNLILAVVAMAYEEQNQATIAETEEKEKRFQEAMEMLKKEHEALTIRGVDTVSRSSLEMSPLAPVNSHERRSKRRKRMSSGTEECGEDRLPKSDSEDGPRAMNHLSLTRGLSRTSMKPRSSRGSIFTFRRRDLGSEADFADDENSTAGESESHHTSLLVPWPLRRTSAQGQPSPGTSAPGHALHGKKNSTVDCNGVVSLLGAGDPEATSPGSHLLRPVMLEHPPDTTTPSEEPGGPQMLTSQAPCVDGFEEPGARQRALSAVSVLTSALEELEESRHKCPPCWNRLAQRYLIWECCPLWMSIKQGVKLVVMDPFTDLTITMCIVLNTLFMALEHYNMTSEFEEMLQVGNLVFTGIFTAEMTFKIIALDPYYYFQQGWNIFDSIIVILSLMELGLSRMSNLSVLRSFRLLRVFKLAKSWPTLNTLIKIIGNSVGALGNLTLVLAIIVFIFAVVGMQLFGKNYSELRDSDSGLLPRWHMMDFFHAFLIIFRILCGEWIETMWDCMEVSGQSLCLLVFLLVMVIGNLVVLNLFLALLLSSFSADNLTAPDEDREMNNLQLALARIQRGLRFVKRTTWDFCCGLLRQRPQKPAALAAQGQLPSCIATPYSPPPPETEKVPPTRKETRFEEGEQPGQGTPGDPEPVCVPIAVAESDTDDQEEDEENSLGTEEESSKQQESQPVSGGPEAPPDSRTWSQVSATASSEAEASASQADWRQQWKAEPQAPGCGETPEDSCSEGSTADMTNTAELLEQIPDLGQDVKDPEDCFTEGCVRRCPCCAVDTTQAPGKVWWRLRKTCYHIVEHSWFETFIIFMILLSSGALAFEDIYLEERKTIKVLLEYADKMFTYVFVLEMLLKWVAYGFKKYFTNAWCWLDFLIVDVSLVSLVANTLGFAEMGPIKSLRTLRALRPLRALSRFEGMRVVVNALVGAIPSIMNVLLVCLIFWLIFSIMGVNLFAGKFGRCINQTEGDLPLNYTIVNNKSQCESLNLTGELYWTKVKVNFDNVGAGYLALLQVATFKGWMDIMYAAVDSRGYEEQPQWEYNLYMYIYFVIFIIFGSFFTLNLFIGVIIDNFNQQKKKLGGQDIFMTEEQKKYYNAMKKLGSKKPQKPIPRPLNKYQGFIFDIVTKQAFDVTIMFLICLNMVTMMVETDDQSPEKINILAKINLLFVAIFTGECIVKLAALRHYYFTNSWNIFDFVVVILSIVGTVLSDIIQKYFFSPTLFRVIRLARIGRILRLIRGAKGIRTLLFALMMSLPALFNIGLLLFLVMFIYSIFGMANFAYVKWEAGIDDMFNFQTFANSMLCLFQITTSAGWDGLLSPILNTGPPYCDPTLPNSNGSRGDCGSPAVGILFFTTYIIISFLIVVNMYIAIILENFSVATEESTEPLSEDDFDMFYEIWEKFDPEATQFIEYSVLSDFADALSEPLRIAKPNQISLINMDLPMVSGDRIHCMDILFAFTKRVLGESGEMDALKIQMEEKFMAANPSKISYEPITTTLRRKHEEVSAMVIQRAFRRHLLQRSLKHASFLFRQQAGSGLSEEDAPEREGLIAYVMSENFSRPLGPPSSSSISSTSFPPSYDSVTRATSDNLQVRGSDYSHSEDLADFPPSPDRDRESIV", "experiment": "cell-based"}, "hNav1.3": {"molecular_target": "hNav1.3 (Homo sapiens, UniProt Q9NY46)", "sequence (Q9NY46 whole entry, looked up)": "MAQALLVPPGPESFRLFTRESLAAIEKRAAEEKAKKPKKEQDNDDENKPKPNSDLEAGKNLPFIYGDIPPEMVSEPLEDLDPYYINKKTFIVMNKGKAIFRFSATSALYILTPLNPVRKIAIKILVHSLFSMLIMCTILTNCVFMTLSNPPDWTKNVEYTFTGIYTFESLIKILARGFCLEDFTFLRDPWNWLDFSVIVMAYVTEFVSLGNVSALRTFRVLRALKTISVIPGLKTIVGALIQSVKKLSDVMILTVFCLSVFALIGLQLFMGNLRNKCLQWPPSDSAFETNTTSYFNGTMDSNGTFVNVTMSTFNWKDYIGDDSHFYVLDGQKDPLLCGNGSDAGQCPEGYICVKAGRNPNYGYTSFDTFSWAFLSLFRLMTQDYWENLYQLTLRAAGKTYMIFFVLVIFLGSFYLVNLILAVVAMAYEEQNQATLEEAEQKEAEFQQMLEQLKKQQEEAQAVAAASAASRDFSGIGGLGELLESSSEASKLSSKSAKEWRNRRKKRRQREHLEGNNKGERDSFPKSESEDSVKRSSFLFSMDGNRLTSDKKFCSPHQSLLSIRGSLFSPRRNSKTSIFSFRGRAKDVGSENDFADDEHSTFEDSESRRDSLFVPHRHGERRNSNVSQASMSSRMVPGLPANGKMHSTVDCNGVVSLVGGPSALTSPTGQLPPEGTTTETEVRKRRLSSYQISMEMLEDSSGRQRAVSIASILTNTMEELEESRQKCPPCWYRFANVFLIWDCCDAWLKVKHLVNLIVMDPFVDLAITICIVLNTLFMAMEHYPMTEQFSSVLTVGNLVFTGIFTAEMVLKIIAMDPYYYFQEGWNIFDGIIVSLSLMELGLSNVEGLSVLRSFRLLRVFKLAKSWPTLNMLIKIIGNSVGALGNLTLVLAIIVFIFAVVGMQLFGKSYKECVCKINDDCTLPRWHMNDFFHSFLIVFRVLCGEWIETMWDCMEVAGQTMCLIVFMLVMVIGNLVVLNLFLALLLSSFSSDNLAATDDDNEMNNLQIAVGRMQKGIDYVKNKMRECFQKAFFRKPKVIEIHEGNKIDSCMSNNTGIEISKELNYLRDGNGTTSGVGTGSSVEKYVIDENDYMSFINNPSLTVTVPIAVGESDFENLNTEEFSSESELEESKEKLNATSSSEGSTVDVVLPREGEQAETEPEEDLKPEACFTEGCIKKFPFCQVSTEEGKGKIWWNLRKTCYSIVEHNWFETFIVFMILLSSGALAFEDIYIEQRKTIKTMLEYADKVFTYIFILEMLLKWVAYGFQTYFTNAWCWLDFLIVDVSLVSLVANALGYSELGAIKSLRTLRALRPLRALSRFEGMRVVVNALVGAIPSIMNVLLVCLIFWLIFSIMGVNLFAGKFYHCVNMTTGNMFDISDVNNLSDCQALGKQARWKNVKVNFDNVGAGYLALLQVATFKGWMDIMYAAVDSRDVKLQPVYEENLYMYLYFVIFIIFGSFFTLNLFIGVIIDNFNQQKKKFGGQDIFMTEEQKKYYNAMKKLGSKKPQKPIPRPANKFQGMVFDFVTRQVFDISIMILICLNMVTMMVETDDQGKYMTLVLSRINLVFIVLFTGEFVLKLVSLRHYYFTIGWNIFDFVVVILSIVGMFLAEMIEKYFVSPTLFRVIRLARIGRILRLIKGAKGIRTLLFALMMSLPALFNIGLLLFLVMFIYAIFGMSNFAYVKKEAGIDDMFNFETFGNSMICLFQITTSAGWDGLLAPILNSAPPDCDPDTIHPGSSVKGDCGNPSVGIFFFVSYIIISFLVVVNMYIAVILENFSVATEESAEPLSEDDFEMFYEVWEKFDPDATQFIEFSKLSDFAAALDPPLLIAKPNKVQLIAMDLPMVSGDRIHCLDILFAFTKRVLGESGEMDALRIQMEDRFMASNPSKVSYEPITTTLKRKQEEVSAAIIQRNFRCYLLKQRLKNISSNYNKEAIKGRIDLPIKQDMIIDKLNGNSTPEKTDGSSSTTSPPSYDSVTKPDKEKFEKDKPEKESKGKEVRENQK", "experiment": "cell-based", "details": "Table 25; IonWorks Quattro, use; […]; read-out: IWQ Use Nav1.3"}}, "note": "Where two headings read alike, the source gives them in different places. Positions of bridges follow the written chain, without caps; N, C: chain ends. Residues, ends and D or L forms follow the SMILES beside them.", "data": [{"molecule": "CC[C@H](C)[C@@H]1NC(=O)[C@@H]2CSSC[C@@H]3NC(=O)[C@H](C(C)C)NC(=O)[C@H](CC(C)C)NC(=O)[C@H](CC(N)=O)NC(=O)[C@@H]4CCCN4C(=O)[C@H](CCCNC(=N)N)NC(=O)[C@H](CSSC[C@H](NC(=O)[C@@H](N)CC(=O)O)C(=O)N[C@@H](CC(C)C)C(=O)NCC(=O)N[C@@H](Cc4ccccc4)C(=O)N[C@@H](CCSC)C(=O)N[C@@H](CCCNC(=N)N)C(=O)N[C@@H](CCCCN)C(=O)N2)NC(=O)[C@H](CSSC[C@@H](C(=O)N[C@@H](CCCCN)C(=O)N[C@@H](CCCNC(=N)N)C(=O)N[C@H](C(=O)N[C@@H](Cc2ccccc2)C(N)=O)C(C)C)NC(=O)[C@H](Cc2c[nH]c4ccccc24)NC(=O)[C@H](CCCCN)NC(=O)[C@H](Cc2cnc[nH]2)NC(=O)[C@H]([C@@H](C)O)NC(=O)[C@H](CCCNC(=N)N)NC(=O)[C@H](CO)NC3=O)NC(=O)[C@H](CCCCN)NC(=O)[C@H](CC(=O)O)NC(=O)[C@H](CC(N)=O)NC(=O)[C@H](CC(=O)O)NC(=O)[C@@H]2CCCN2C1=O", "note": "[compound 159] (H-DCLGFMRKCIPDNDKCCRPNLVCSRTHKWCKRVF-NH2; disulfide 2-17, 9-23, 16-30)", "values": [{"measurement": "IC50", "setting": "hNav1.5; IWQ Use Nav1.5 (μM)", "result": 8.65, "unit": "µM"}, {"measurement": "IC50", "setting": "hNav1.3", "result": 0.87, "unit": "µM"}]}, {"molecule": "CC[C@@H](C)[C@H]1NC(=O)[C@H]2CSSC[C@H]3NC(=O)[C@@H](C(C)C)NC(=O)[C@@H](CC(C)C)NC(=O)[C@@H](CC(N)=O)NC(=O)[C@H]4CCCN4C(=O)[C@@H](CCCNC(=N)N)NC(=O)[C@@H](CSSC[C@@H](NC(=O)[C@H](N)CC(=O)O)C(=O)N[C@H](CC(C)C)C(=O)NCC(=O)N[C@H](Cc4ccccc4)C(=O)N[C@H](CCSC)C(=O)N[C@H](CCCNC(=N)N)C(=O)N[C@H](CCCCN)C(=O)N2)NC(=O)[C@@H](CSSC[C@H](C(=O)N[C@H](CCCCN)C(=O)N[C@H](Cc2ccc(O)cc2)C(=O)N[C@@H](C(=O)N[C@H](Cc2ccccc2)C(N)=O)C(C)C)NC(=O)[C@@H](Cc2c[nH]c4ccccc24)NC(=O)[C@@H](CCCCN)NC(=O)[C@@H](Cc2c[nH]cn2)NC(=O)[C@@H]([C@H](C)O)NC(=O)[C@@H](CCCNC(=N)N)NC(=O)[C@@H](CO)NC3=O)NC(=O)[C@@H](CCCCN)NC(=O)[C@@H](CC(=O)O)NC(=O)[C@@H](CC(N)=O)NC(=O)[C@@H](CC(=O)O)NC(=O)[C@H]2CCCN2C1=O", "note": "[compound 2]", "values": [{"measurement": "IC50", "setting": "hNav1.5; IWQ Use Nav1.5 (μM)", "result": 11.3, "unit": "µM"}]}, {"molecule": "CC[C@H](C)[C@@H]1NC(=O)[C@@H]2CSSC[C@@H]3NC(=O)[C@H](C(C)C)NC(=O)[C@H](CC(C)C)NC(=O)[C@H](CC(N)=O)NC(=O)[C@@H]4CCCN4C(=O)[C@H](CCCNC(=N)N)NC(=O)[C@H](CSSC[C@H](NC(=O)[C@@H](N)CC(=O)O)C(=O)N[C@@H](CC(C)C)C(=O)NCC(=O)N[C@@H](Cc4ccccc4)C(=O)N[C@@H](CCSC)C(=O)N[C@@H](CCCNC(=N)N)C(=O)N[C@@H](CCCCN)C(=O)N2)NC(=O)[C@H](CSSC[C@@H](C(=O)N[C@@H](CCCCN)C(=O)N[C@@H](Cc2ccc(O)cc2)C(=O)N[C@H](C(=O)N[C@@H](Cc2ccccc2)C(N)=O)C(C)C)NC(=O)[C@H](Cc2c[nH]c4ccccc24)NC(=O)[C@H](CCCCN)NC(=O)[C@H](Cc2c[nH]cn2)NC(=O)[C@H](Cc2c[nH]cn2)NC(=O)[C@H](CCCNC(=N)N)NC(=O)[C@H](CO)NC3=O)NC(=O)[C@H](CCCCN)NC(=O)[C@H](CC(=O)O)NC(=O)[C@H](CC(N)=O)NC(=O)[C@H](CC(=O)O)NC(=O)[C@@H]2CCCN2C1=O", "note": "[compound 337] (H-DCLGFMRKCIPDNDKCCRPNLVCSRHHKWCKYVF-NH2; disulfide 2-17, 9-23, 16-30)", "values": [{"measurement": "IC50", "setting": "hNav1.5; Table 22, IonWorks Quattro, use, […], read-out: IWQ Use Nav1.5", "result": 4.52, "unit": "µM"}]}, {"molecule": "CC[C@H](C)[C@@H]1NC(=O)[C@@H]2CSSC[C@@H]3NC(=O)[C@H](C(C)C)NC(=O)[C@H](CC(C)C)NC(=O)[C@H](CC(N)=O)NC(=O)[C@@H]4CCCN4C(=O)[C@H](CCCNC(=N)N)NC(=O)[C@H](CSSC[C@H](NC(=O)[C@@H](N)CC(=O)O)C(=O)N[C@@H](CC(C)C)C(=O)NCC(=O)N[C@@H](Cc4ccccc4)C(=O)N[C@@H](CCSC)C(=O)N[C@@H](CCCNC(=N)N)C(=O)N[C@@H](CCCCN)C(=O)N2)NC(=O)[C@H](CSSC[C@@H](C(=O)N[C@@H](CCCCN)C(=O)N[C@@H](Cc2ccc(O)cc2)C(=O)N[C@H](C(=O)N[C@@H](Cc2ccccc2)C(N)=O)C(C)C)NC(=O)[C@H](Cc2c[nH]c4ccccc24)NC(=O)[C@H](CCC(N)=O)NC(=O)[C@H](Cc2c[nH]cn2)NC(=O)[C@H]([C@@H](C)O)NC(=O)[C@H](CCCNC(=N)N)NC(=O)[C@H](CO)NC3=O)NC(=O)[C@H](CCCCN)NC(=O)[C@H](CC(=O)O)NC(=O)[C@H](CC(N)=O)NC(=O)[C@H](CC(=O)O)NC(=O)[C@@H]2CCCN2C1=O", "note": "[SEQ ID NO: 763, [Gln28]GpTx-1] (H-DCLGFMRKCIPDNDKCCRPNLVCSRTHQWCKYVF-NH2; disulfide 2-17, 9-23, 16-30)", "values": [{"measurement": "IC50", "setting": "hNav1.5; read-out: IWQ Use Nav1.5", "result": 22.7, "unit": "µM"}]}, {"molecule": "CC[C@H](C)[C@@H]1NC(=O)[C@@H]2CSSC[C@@H]3NC(=O)[C@H](C(C)C)NC(=O)[C@H](CC(C)C)NC(=O)[C@H](CC(N)=O)NC(=O)[C@@H]4CCCN4C(=O)[C@H](CCCNC(=N)N)NC(=O)[C@H](CSSC[C@H](NC(=O)[C@@H](N)CC(=O)O)C(=O)N[C@@H](CC(C)C)C(=O)NCC(=O)N[C@H](Cc4ccccc4)C(=O)N[C@@H](CCSC)C(=O)N[C@@H](CCCNC(=N)N)C(=O)N[C@@H](CCCCN)C(=O)N2)NC(=O)[C@H](CSSC[C@@H](C(=O)N[C@@H](CCCCN)C(=O)N[C@@H](Cc2ccc(O)cc2)C(=O)N[C@H](C(=O)N[C@@H](Cc2ccccc2)C(N)=O)C(C)C)NC(=O)[C@H](Cc2c[nH]c4ccccc24)NC(=O)[C@H](CCCCN)NC(=O)[C@H](Cc2c[nH]cn2)NC(=O)[C@H]([C@@H](C)O)NC(=O)[C@H](CCCNC(=N)N)NC(=O)[C@H](CO)NC3=O)NC(=O)[C@H](CCCCN)NC(=O)[C@H](CC(=O)O)NC(=O)[C@H](CC(N)=O)NC(=O)[C@H](CC(=O)O)NC(=O)[C@@H]2CCCN2C1=O", "note": "[SEQ ID NO: 273]", "values": [{"measurement": "IC50", "setting": "hNav1.5; IWQ Use Nav1.5", "result": "> 5", "unit": "µM"}]}, {"molecule": "CC[C@H](C)[C@@H]1NC(=O)[C@@H]2CSSC[C@@H]3NC(=O)[C@H](C(C)C)NC(=O)[C@H](CC(C)C)NC(=O)[C@H](CC(N)=O)NC(=O)[C@@H]4CCCN4C(=O)[C@H](CCCNC(=N)N)NC(=O)[C@H](CSSC[C@H](NC(=O)[C@@H](N)CC(=O)O)C(=O)N[C@@H](CC(C)C)C(=O)NCC(=O)N[C@@H](C)C(=O)N[C@@H](CCSC)C(=O)N[C@@H](CCCNC(=N)N)C(=O)N[C@@H](CCCCN)C(=O)N2)NC(=O)[C@H](CSSC[C@@H](C(=O)N[C@@H](CCCCN)C(=O)N[C@@H](Cc2ccc(O)cc2)C(=O)N[C@H](C(=O)N[C@@H](Cc2ccccc2)C(N)=O)C(C)C)NC(=O)[C@H](Cc2c[nH]c4ccccc24)NC(=O)[C@H](CCC(=O)O)NC(=O)[C@H](Cc2c[nH]cn2)NC(=O)[C@H]([C@@H](C)O)NC(=O)[C@H](CCCNC(=N)N)NC(=O)[C@H](CO)NC3=O)NC(=O)[C@H](CCCCN)NC(=O)[C@H](CC(=O)O)NC(=O)[C@H](CC(N)=O)NC(=O)[C@H](CC(=O)O)NC(=O)[C@@H]2CCCN2C1=O", "note": "[compound 691]", "values": [{"measurement": "IC50", "setting": "hNav1.5; IonWorks Quattro, use-dependent protocol, hNav1.5, read-out: IWQ Use Nav1.5", "result": "> 5", "unit": "µM"}]}]}
